Patent US20120021967A1, “SYNTHETIC ANTIBODIES” (Arizona Board of Regents, A Body Corporate of the State Of …, priority 2008, published 2012)
Where a SMILES comes first, the peptide text is derived from it. Where no end group is shown, it is not given here.

Experiments:
[1] = biological target: TNF-α (Homo sapiens, UniProt P01375); assay: SPR (Biacore A100) of TNF1 lead and mutant peptides on captured TNF-α; assay type: binding; conditions: for koff: kinetic fits of sensorgrams, read-out: off-rate koff
Excerpt: Scanning Mutagenesis of the TNF1 Lead Peptide. After lead identification, the next step in the AMPLI algorithm is characterization of point mutations in the lead heteropolymer. Using short peptides makes it chemically feasible to synthesize a significant fraction of the point-mutant space, which can then be screened for enhanced point mutations. For example, all possible point mutations in the 17 randomized positions using all 20 natural amino acids could be synthesized and screened within a single 384-well plate (323 total point-mutants). However, libraries containing all 20 natural amino acids are not required for affinity optimization of protein-protein interactions. A library of TNF1 point-mutants containing all substitutions of the amino acid set {Y, A, D, S, K, N, V, W} in each of the 17 randomized positions (132 unique point-mutants) was synthesized. Tyrosine (Y), alanine (A), aspartic acid (D) and serine (S) were selected because of their effectiveness in producing high affinity interactions when substituted into the complementary-determining regions (CDRs) of synthetic antibodies (Felouse, Proceedings of the National Academy of Sciences 101(34):12467, 2004), lysine (K) was selected to balance the charge in the substitution set, asparagine (N), valine (V) and tryptophan (W) were selected to span the hydropathicity range (Kyte J & Doolittle R F, Journal of Molecular Biology 157(1):105-132, 1982). […] This concentration was used to increase the high-end dynamic range for quantifying enhancing point mutations at the expense of low-end dynamic range for quantifying detrimental point mutations.
Point-mutant libraries were prepared in 96-well stock plates From the stock plate, peptides were diluted to 50 μM concentration in Biacore HBS-EP buffer (GE Healthcare, Piscataway, N.J.) containing 1 mg/ml carboxymethyl-dextran (Sigma-Aldrich, St. Louis, Mo.) to reduce non-specific binding to the CM-5 SPR chip surface. […] Spot 3 contained only immobilized neutravidin and served as a reference spot.
Using the prepared 96-well plates and Biacore A100 SPR instrument, four peptides were flowed separately, in parallel, through the four flow cells over all 4 TNF-α spots and the neutravidin reference spot, with a 60 second association phase and 300 second dissociation phase. SPR sensorgrams were recorded for each peptide response with all 4 TNF-α spots and the neutravidin reference spot across the four flow cells on the SPR chip. […]
Purified point-mutant affinities were measured on the Biacore A100 using SPR equilibrium binding response across a series of peptide concentrations on an SPR chip with TNF-α captured as described above. […]

[2] = biological target: T1, transferrin (Homo sapiens, UniProt P02787); assay: SPR characterization of TRF26 lead and point-mutant peptides against transferrin; assay type: binding
Excerpt: In this example, a small library of ˜300 variant peptides was synthesized in 96-well format. […] The lead peptide (TRF26, see Table 6) was selected as a moderate-affinity binder of the target protein transferrin. The library of variant peptides contained all possible point mutations of the lead peptide using the following set of amino acids {M,A,V,P,L,I,G,W,Y,F,S,T,N,Q,K,R,H,D,E}.
Relative affinities/specificities of the lead peptide and point-mutants were characterized using SPR as follows:
Peptide sample preparation. Lyophilized peptides were individually diluted in 96-well plates to approximately equal concentration (1 mg/ml) in 1×PBST buffer pH 7.4. Peptide sample purity was determined by MALDI-MS analysis of the diluted peptide samples.
SPR gold substrate preparation. Gold substrates used for SPR analysis were first modified with a monolayer of cysteamine by immersing the substrate in a 10 mM cysteamine/EtOH solution for 1 hour, thereby exposing a layer of primary amines just above the gold surface. After addition of the monolayer, the gold substrates were rinsed extensively with EtOH then further modified by immersing in a solution of 2 mM Sulfo-SMCC/PBS pH 7.4 for 1 hour, thereby exposing a surface-bound maleimide which can be used to covalently couple peptides to the gold substrate via the C-terminal cysteine.
Peptide spotting on gold substrate. Diluted peptide samples were spotted on the modified gold substrate using a commercial robotic spotter in an array format. The array contained ˜440 peptide spots (including replicates and blank reference spots), each spot having ˜200 um diameter. Spotted substrates were kept in a humidity chamber overnight to ensure complete reaction between the surface exposed maleimide and the C-terminal cysteine in the peptides. After ˜12-hours, the substrates were washed with PBST buffer to remove excess peptide not bound to the gold substrate. Finally, unreacted maleimide groups were quenched using a 2 mM β-mercaptoethanol/PBST solution thereby presenting a hydrophilic surface in regions not containing peptide.
Determination of target affinity using SPR. Gold substrates containing arrays of peptide variants and the lead peptide were loaded into a FlexChip SPR (Biacore) instrument. To ensure binding specificity, three injections of 0.2% BSA sample were flowed across the array using the FlexChip fluidics. The array was then washed with a continuous 1 mL/min flow of PBST buffer until the sensorgram reached a stable baseline. After reaching a baseline, the array was washed 2 additional minutes using PBST, then a 10 μM Transferrin/PBST sample was injected and continuously recycled over the array surface for 8 minutes. After the recycle the array was washed […] with continuous 1 mL/min PBST flow for 10 minutes. Sensorgrams were continuously recorded during the 2 minute prewash (to ensure baseline stability), 8 minute Transferrin sample recycle and post sample recycle wash.
Quantification of relative target affinities. Sensorgram values were taken from the stability region, that is the region ˜10 seconds into the post sample recycle wash. Sensorgram values at this point should allow identification of peptides that have both high levels of target binding and off-rates slower than the lead peptide. […] Data processing included identification of the mutated position at a particular SPR array spot as well as signal normalization relative to the lead peptide (lead peptide=1), enhanced binders have positive values and reduced binders have negative values.
Two TRF26 point-mutants (P6Y, H12F) were selected for further affinity characterization. The P6Y and H12F point-mutants have dissociation constants of 8.6±1.6 μM and 9.8±1.6 μM respectively. […] A TRF26 double mutant sequence containing the P6Y+H12F mutations was synthesized and characterized.

[3] = biological target: T2, human α-thrombin (Homo sapiens, UniProt P00734); assay: ELISA-type assay on thrombin-coated wells; assay type: binding; conditions: read-out: Dissociation constant estimated from ELISA-type assay
T2 construct: human α-thrombin
Protocol: Binding to thrombin was evaluated in an ELISA-type assay. Wells of a 96 well plate were coated with 100 μL of 30 μg/mL human α-thrombin and incubated at 4C overnight. The plate was washed twice with DDI H2O and passivated with 3% BSA in 1×PBS buffer for 1 hour. The plate was shaken out and 50 μL of varying concentrations of analyte (DNA tile synbody, DNA tile with each aptamer with the other not present, and each aptamer alone, respectively) were incubated at RT for 1 hour. DNA tiles were biotin-modified at the 5′ end of one of the distal DNA strands 346 (see FIG. 26(a)). The plate was rinsed 10 times in 1×PBS and 50 μL of 1:1000 dilution of streptavidin-HRP in 0.1% BSA in 1×PBS was pipetted and incubated for 1 hour at RT. The plate was again rinsed and 50 μL of TMB was added and incubated at RT for 15 minutes. 50 μL of 0.5M HCl was added and the plate was read immediately. Results are shown in FIG. 27 for the DNA tile synbody 350; the DNA tile with Apt1 but not Apt2 present 352; the DNA tile with Apt2 but not Apt1 present 356; Apt1 alone 354; and Apt2 alone 358. Dissociation constant values estimated from this assay were about 1 nM for the DNA tile synbody, about 10 nM for Apt1 alone, and more than 1 μM for Apt2 alone.

[4] = biological target: T1, transferrin; assay: SPR (Biacore T100) steady state affinity of mRNA display clones on immobilized transferrin; assay type: binding; conditions: for Kd: steady state affinity model, 32 to 0.0625 μM
Protocol: Five clones (see Table 15) were selected, synthesized and purified by HPLC for characterization by surface plasmon resonance (SPR) (T100 instrument from Biacore). Transferrin was immobilized using standard NHS/EDC immobilization chemistry according to the methods described in Frostell-Karlsson, A., Remaeus, A., Andersson, K., Borg, P., Hamalainen, M., and Karlsson, R. (2000) J. Med. Chem. 43, resulting in 9758 RU of immobilized protein. HPLC purified peptides were injected over the surface and sensograms were recorded at multiple concentrations (32, 16, 8, 4, 2, 1, 0.5, 0.25, 0.125. and 0.0625 μM). Affinity plots were generated for each peptide and fit using a steady state affinity model.

[5] = biological target: T1, transferrin; assay: SPR analysis of peptide pairs for binding to distinct sites on immobilized transferrin
Excerpt: The transferrin target was immobilized on a Biacore T100 SPR chip, and candidate polypeptides were applied in 1:1 mixtures in pairs and response data obtained, in accordance with the methods described in Example 4 above. As illustrated in FIGS. 12A-D, upon flowing candidate polypeptides over the immobilized target, ideally one polypeptide applied alone would bind to a first binding site on the target and produce a first characteristic SPR response level (FIG. 12A), the other polypeptide would bind to a second, distinct binding site on the target, producing a second characteristic response level (FIG. 12B), and a mixture of the two polypeptides together (at the same concentrations as before) would produce a response level approximating the sum of the response levels produced by each polypeptide alone, as the polypeptides bind to distinct binding sites (FIG. 12C).

[6] = observed, read-out: dissociation constant
[7] = Table 13A, lead and point-mutants

TNF-α, sequence (P01375 77-233 limits assumed, species assumed): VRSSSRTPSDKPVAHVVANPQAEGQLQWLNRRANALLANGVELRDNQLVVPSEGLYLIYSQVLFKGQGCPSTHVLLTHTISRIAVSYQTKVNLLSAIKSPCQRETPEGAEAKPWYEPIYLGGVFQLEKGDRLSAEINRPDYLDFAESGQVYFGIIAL
T1 sequence (P02787 20-698): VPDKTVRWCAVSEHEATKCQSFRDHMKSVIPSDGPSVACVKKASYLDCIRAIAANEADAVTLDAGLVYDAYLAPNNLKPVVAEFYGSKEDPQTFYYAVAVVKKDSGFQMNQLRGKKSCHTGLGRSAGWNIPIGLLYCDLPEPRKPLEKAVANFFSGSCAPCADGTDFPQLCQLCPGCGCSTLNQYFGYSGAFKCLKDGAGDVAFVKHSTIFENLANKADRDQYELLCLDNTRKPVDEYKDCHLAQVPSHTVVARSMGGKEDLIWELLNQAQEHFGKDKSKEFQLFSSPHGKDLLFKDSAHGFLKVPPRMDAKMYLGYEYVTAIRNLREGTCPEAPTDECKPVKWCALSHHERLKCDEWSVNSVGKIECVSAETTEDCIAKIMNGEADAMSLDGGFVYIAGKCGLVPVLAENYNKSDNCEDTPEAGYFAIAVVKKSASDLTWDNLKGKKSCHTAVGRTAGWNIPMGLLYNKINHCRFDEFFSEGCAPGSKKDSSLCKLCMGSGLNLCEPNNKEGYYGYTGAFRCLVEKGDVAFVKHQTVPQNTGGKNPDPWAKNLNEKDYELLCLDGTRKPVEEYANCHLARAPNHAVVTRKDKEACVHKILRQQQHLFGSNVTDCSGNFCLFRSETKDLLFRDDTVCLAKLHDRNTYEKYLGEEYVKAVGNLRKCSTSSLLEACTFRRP

FERSYLKMPWKFLQSRQGSC [TNF1-opt]
koff [1]: 0.2 ± 0.02 s⁻¹

AHKVVYQRQIRFAYNRYGSC [P6Y + H12F]
Observed Binding ΔG ([2]; Table 13D): -8.68 ± 0.15 kcal/mol
Observed Kd Fold-Change Relative to Lead ([2]; Table 13D): 190 ± 57
Predicted Binding ΔG ([2]; Table 13D, energetic additivity): -8.22 ± 0.18 kcal/mol
Kd [2, 6]: 0.5 ± 0.1 µM

FERDPLMMPWSFLQSRQGSC [TNF1]
Binding ΔG [1, 7]: -5.21 ± 0.07 kcal/mol
Kd [1, 7]: 160 ± 19 µM
koff [1]: 1.6 ± 0.5 s⁻¹

5′-GGTTGGTGTGGTTGG-3′ [Apt2 alone]
Kd [3]: > 1 µM

AHKVVPQRQMRHAYSRYGSC [TBPM023]
affinity improvement in comparison to the original peptide TRF26 [4]: more than 10 fold

C[C@H](N)C(=O)N[C@H](C(=O)N[C@@H](CCCNC(=N)N)C(=O)N[C@@H](Cc1c[nH]c2ccccc12)C(=O)N[C@@H](CS)C(=O)N1CCC[C@H]1C(=O)N[C@@H](CO)C(=O)N[C@@H](C)C(=O)N[C@@H](CCCNC(=N)N)C(=O)N1CCC[C@H]1C(=O)N[C@@H](C)C(=O)N[C@H](C(=O)N1CCC[C@H]1C(=O)N[C@H](C(=O)N[C@H](C(=O)N[C@@H](C)C(=O)N[C@H](C(=O)NCC(=O)N[C@@H](CO)C(=O)N[C@@H](CS)C(=O)O)[C@@H](C)O)[C@@H](C)O)[C@@H](C)O)[C@@H](C)O)[C@@H](C)O [TBPM021] (H-ATRWCPSARPATPTTATGSC-OH)
Kd [4]: > 300 µM

AHKVVYQRQIRHAYNRYGSC [P6Y]
Binding ΔG ([2]; Table 13C): -6.93 ± 0.11 kcal/mol
Component Binding ΔG Contribution ([2]; Table 13C): -1.37 ± 0.15 kcal/mol
Kd Fold-Change Relative to Lead ([2]; Table 13C): 10 ± 2.5
Kd [2, 6]: 8.6 ± 1.6 µM

CC(C)C[C@H](NC(=O)[C@H](CCCNC(=N)N)NC(=O)[C@@H]1CCCN1C(=O)[C@@H]1CCCN1C(=O)[C@H](CC(=O)O)NC(=O)[C@@H]1CCCN1C(=O)[C@H](C)NC(=O)[C@@H]1CCCN1C(=O)[C@H](CS)NC(=O)[C@H](Cc1c[nH]c2ccccc12)NC(=O)CNC(=O)[C@@H](NC(=O)[C@@H]1CCCN1)[C@@H](C)O)C(=O)N[C@@H](Cc1c[nH]cn1)C(=O)N1CCC[C@H]1C(=O)N[C@@H](CC(C)C)C(=O)N[C@@H](Cc1c[nH]cn1)C(=O)NCC(=O)N[C@@H](CO)C(=O)N[C@@H](CS)C(=O)O [TBPM003] (H-PTGWCPAPDPPRLHPLHGSC-OH)
Kd [4]: > 300 µM

AHKVVPQRQIRFAYNRYGSC [H12F]
Binding ΔG ([2]; Table 13C): -6.85 ± 0.10 kcal/mol
Component Binding ΔG Contribution ([2]; Table 13C): -1.29 ± 0.14 kcal/mol
Kd Fold-Change Relative to Lead ([2]; Table 13C): 8.8 ± 2.0
Kd [2, 6]: 9.8 ± 1.6 µM

AHKVVPQRQIRHAYNRYGSC [TRF26]
binding sites on transferrin (pairs applied in 1:1 mixtures) [5]: bind distinct sites on transferrin
Binding ΔG ([2]; Table 13C): -5.56 ± 0.10 kcal/mol
Kd ([2]; Table 13C, read-out: Kd): 85 ± 14 µM

5′-AGTCCGTGGTAGGGCAGGTTGGGGTGACT-3 [Apt1 alone]
Kd [3]: ~0.01 µM
